Experimental data: patent publication US12447153B2, “HER2 mutation inhibitors” (Array BioPharma Inc., priority 2021, dated 2025)

Legend:
ErbB2 WT = ErbB2 WT (Homo sapiens (Human), UniProt P04626); assay: ErbB Enzyme Assay (HTRF KinEASE-TK), Assay 2; type: biochemical
EGFR = EGFR (Homo sapiens (Human), UniProt P00533); assay: ErbB Enzyme Assay (HTRF KinEASE-TK), Assay 3; type: biochemical
[1] = molecular target: ErbB2 with Exon 20 YVMA insertion (HER2-YVMA) (Homo sapiens (Human), UniProt P04626, INS775YVMA); assay: Cellular Phosphorylation Assay, Assay 4 (constitutive ErbB2 phosphorylation, NIH 3T3 cells); type: cell-based
EGFR wild type (EGFR WT) = EGFR wild type (EGFR WT) (Homo sapiens (Human), UniProt P00533); assay: Cellular Phosphorylation Assay, Assay 5 (EGF-stimulated EGFR phosphorylation, NIH 3T3 cells); type: cell-based
BCRP = BCRP (Homo sapiens (Human), UniProt Q9UNQ0); assay: BCRP MDCKII efflux assay (Assay 7); type: in vitro ADME; conditions: dog; efflux ratio Papp(B-A)/Papp(A-B), BCRP MDCKII cells; read-out: Assay 7 Pe Ratio
Experimental: Assay conditions included with and without the BCRP-specific inhibitor, KO143, at a concentration of 0.3 μM to ascertain the contribution of BCRP to the efflux value of the test compound.
Final organic concentration in the assay was 1%.

[2] = cellular ErbB2 YVMA phosphorylation
[3] = cellular EGFR WT phosphorylation, EGF-stimulated
[4] = EGF-stimulated EGFR WT phosphorylation

ErbB2 WT, sequence (P04626 23-1255): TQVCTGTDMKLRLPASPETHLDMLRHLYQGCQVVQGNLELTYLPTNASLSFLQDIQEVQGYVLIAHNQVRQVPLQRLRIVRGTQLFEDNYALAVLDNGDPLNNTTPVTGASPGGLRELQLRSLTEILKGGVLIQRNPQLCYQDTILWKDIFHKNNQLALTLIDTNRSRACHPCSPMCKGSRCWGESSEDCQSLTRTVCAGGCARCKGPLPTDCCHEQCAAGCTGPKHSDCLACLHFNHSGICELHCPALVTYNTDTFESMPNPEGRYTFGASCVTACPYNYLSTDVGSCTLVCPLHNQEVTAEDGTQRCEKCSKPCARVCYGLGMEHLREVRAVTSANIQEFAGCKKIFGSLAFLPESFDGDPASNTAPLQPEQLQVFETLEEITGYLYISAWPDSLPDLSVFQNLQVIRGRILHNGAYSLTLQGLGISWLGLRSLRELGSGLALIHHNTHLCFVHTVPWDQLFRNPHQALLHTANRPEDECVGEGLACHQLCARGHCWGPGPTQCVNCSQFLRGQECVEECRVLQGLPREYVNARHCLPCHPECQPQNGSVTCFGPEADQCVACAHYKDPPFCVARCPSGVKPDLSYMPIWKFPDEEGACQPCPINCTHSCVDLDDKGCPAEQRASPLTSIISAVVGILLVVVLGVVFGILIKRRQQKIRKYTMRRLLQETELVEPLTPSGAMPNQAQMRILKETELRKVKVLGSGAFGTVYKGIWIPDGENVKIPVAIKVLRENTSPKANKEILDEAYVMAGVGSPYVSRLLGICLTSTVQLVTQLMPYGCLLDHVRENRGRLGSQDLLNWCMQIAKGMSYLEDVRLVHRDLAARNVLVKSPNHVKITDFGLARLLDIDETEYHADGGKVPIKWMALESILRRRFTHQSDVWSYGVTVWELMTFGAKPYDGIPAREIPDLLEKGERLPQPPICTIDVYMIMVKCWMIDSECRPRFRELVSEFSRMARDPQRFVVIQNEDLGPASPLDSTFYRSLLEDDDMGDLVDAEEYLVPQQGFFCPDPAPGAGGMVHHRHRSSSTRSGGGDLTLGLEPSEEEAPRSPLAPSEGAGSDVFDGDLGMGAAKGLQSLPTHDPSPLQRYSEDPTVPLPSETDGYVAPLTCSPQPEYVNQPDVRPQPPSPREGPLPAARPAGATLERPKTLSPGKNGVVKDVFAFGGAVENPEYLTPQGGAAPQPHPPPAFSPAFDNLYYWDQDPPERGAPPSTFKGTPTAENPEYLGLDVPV
BCRP, sequence (Q9UNQ0 whole entry): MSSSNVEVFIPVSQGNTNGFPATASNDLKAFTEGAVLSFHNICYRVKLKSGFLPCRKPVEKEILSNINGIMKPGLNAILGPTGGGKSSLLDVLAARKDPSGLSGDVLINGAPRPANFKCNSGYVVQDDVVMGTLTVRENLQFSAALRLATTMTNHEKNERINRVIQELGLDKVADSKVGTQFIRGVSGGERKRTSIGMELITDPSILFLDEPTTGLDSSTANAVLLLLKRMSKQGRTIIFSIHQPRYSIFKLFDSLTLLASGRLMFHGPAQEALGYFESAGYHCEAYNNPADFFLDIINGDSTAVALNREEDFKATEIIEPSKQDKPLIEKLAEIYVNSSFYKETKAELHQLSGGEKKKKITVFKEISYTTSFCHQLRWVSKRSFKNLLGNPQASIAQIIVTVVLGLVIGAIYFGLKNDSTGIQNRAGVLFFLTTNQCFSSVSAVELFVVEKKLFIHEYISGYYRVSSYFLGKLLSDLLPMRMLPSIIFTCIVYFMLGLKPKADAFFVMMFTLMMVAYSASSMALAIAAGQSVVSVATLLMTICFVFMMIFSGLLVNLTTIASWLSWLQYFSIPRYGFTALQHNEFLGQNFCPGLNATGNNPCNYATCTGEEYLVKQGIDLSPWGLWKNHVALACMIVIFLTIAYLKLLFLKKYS
ErbB2 with Exon 20 YVMA insertion (HER2-YVMA), sequence (P04626 other isoform, or with tags, fused parts or gaps ins YVMA behind 775): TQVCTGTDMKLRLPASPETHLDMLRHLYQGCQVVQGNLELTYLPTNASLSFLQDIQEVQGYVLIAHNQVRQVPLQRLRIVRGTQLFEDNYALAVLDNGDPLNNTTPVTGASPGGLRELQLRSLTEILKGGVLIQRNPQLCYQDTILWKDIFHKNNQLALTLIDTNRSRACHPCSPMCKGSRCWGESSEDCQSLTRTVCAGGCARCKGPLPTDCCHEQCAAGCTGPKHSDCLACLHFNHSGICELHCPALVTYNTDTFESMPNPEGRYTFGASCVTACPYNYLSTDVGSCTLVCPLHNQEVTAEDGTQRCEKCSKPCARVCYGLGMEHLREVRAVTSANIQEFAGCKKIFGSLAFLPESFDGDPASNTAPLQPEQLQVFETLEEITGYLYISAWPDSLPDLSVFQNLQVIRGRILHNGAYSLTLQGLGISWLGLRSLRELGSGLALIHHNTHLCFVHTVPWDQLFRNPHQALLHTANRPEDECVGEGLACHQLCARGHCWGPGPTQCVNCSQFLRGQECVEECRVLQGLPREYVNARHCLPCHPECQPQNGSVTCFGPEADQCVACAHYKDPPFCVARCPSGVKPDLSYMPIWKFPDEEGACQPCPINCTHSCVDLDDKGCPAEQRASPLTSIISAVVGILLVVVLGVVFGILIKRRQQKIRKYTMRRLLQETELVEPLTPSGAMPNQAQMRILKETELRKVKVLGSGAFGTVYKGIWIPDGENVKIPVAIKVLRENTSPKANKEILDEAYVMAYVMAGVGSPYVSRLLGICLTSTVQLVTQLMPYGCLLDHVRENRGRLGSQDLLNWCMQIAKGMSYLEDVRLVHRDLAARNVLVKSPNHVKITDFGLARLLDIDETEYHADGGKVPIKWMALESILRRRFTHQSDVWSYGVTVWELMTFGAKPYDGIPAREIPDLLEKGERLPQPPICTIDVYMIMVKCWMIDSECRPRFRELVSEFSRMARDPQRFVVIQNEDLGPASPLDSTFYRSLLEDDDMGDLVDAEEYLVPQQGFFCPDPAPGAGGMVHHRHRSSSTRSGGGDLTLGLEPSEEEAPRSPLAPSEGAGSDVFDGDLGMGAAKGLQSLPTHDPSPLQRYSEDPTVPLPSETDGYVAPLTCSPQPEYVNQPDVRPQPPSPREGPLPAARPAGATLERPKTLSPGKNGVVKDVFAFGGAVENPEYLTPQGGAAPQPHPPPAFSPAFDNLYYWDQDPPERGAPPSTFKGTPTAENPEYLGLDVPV
EGFR, sequence (P00533 25-1210): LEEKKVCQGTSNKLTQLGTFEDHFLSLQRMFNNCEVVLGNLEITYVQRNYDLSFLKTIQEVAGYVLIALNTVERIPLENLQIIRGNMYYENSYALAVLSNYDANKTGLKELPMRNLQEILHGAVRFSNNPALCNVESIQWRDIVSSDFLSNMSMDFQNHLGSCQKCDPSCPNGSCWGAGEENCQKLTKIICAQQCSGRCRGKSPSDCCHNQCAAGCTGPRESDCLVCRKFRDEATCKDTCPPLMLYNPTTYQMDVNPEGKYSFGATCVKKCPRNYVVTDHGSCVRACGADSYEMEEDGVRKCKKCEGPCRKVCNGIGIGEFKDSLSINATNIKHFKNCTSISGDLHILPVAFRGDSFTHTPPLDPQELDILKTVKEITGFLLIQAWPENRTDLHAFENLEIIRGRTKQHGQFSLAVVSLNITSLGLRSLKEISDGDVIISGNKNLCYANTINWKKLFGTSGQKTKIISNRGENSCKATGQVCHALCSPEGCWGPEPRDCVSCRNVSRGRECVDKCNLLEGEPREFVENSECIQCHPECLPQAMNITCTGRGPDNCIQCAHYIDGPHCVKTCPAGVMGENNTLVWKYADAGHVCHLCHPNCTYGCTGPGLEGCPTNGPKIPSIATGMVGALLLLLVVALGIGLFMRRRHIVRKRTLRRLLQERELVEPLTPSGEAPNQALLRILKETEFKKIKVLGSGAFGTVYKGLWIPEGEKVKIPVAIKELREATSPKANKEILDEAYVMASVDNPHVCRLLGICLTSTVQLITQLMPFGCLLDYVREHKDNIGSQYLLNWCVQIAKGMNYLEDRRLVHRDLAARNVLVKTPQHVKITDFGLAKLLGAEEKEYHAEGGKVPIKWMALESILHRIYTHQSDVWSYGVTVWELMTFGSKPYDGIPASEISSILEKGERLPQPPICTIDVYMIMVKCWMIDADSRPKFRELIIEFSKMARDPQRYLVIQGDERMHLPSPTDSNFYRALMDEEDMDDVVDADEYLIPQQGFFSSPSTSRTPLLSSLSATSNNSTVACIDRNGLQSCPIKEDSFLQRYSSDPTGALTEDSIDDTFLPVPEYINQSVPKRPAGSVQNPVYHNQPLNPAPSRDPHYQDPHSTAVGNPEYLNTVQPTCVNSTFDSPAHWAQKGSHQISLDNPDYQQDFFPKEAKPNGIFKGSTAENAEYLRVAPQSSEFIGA

SMILES | IC50 (ErbB2 WT; ErbB2 WT enzyme assay) [nM] | IC50 (EGFR; EGFR enzyme assay) [nM] | IC50 [1, 2] [nM] | IC50 (EGFR wild type (EGFR WT); [3]) [nM] | efflux ratio at 2 h, 1 µM (BCRP) | IC50 (ErbB2 WT; ErbB2 WT enzyme) [nM] | IC50 (EGFR; EGFR enzyme) [nM] | IC50 ([1]; ErbB2 YVMA phosphorylation) [nM] | IC50 (EGFR wild type (EGFR WT); [4]) [nM]
C=CC(=O)N1C2CCC1CN(c1ccc3ncnc(Nc4cc(C)c(Oc5ccn6ncnc6c5)cc4F)c3n1)C2 [Example 443] | 90.6 | 4150 | 25.5 | 2820 | 10 | – | – | – | –
C=CC(=O)N1CCC(Sc2ccc3ncnc(Nc4ccc(Oc5ccc6c(c5)ncn6C)c(C)c4)c3n2)CC1 [Example 59, 1-(4-((4-((3-methyl-4-((1-methyl-1H-benzo[d]imidazol-5-yl)oxy)phenyl)amino)pyrido[3,2-d]pyrimidin-6-yl)thio)piperidin-1-yl)prop-2-en-1-one] | – | – | – | – | 10.8 | 25.4 | 534 | 19 | ≥ 5000
C=CC(=O)N1C[C@H]2CC[C@@H]1CN2c1ccc2ncnc(Nc3ccc(Oc4cnc5c(c4)ncn5C)c(C)c3F)c2n1 [Example 236, 1-((1R,4R)-5-(4-((2-fluoro-3-methyl-4-((3-methyl-3H-imidazo[4,5-b]pyridin-6-yl)oxy)phenyl)amino)pyrido[3,2-d]pyrimidin-6-yl)-2,5-diazabicyclo[2.2.2]octan-2-yl)prop-2-en-1-one] | – | – | – | – | 6.8 | 1170 | ≥ 10000 | 24.6 | ≥ 5000
C=CC(=O)N1C2CC1CN(c1ccc3ncnc(Nc4cc(C)c(Oc5cnc6c(c5)ncn6C)cc4F)c3n1)C2 [Example 446] | 2560 | ≥ 10000 | 28 | ≥ 5000 | 19.4 | – | – | – | –
C=CC(=O)N1[C@@H]2CC[C@H]1C[C@H](c1ccc3ncnc(Nc4ccc(Oc5ccc6c(c5)ncn6C)c(C)c4F)c3n1)C2 [Example 195, 1-((1R,3s,5S)-3-(4-((2-fluoro-3-methyl-4-((1-methyl-1H-benzo[d]imidazol-5-yl)oxy)phenyl)amino)pyrido[3,2-d]pyrimidin-6-yl)-8-azabicyclo[3.2.1]octan-8-yl)prop-2-en-1-one] | – | – | – | – | 1.7 | 59.7 | 2550 | 17.9 | 1060

The next lines start with the values.

IC50 (ErbB2 WT; ErbB2 WT enzyme assay) [nM] | IC50 (EGFR; EGFR enzyme assay) [nM] | IC50 [1, 2] [nM] | IC50 (EGFR wild type (EGFR WT); [3]) [nM] | efflux ratio at 2 h, 1 µM (BCRP) | IC50 (ErbB2 WT; ErbB2 WT enzyme) [nM] | IC50 (EGFR; EGFR enzyme) [nM] | IC50 ([1]; ErbB2 YVMA phosphorylation) [nM] | IC50 (EGFR wild type (EGFR WT); [4]) [nM] | SMILES
45.8 | 8970 | 29.8 | 1070 | 1.7 | – | – | – | – | C=CC(=O)N1CCN(c2ccc3ncnc(Nc4ccc(Oc5ccn6ncnc6c5)c(C)c4F)c3n2)C[C@H]1C(C)C [Example 267]
– | – | – | – | 6.8 | 170 | ≥ 10000 | 30.6 | ≥ 5000 | C=CC(=O)N1C[C@H]2C[C@@H]1CN2c1ccc2ncnc(Nc3ccc(Oc4ccn5ncnc5c4)c(C)c3F)c2n1 [Example 94, 1-((1R,4R)-5-(4-((4-([1,2,4]triazolo[1,5-a]pyridin-7-yloxy)-2-fluoro-3-methylphenyl)amino)pyrido[3,2-d]pyrimidin-6-yl)-2,5-diazabicyclo[2.2.1]heptan-2-yl)prop-2-en-1-one]
– | – | – | – | 4.3 | 15.8 | 2580 | 36.7 | ≥ 5000 | C=CC(=O)N1CCC(c2ccc3ncnc(Nc4ccc(Oc5ccc6c(c5)ncn6C)c(C)c4F)c3n2)CC1 [Example 146, 1-(4-(4-((2-fluoro-3-methyl-4-((1-methyl-1H-benzo[d]imidazol-5-yl)oxy)phenyl)amino)pyrido[3,2-d]pyrimidin-6-yl)piperidin-1-yl)prop-2-en-1-one]
76.3 | 5640 | 25.7 | ≥ 5000 | 15.3 | – | – | – | – | C=CC(=O)N1CCC(c2ccc3ncnc(Nc4ccc(Oc5cnc6c(c5)ncn6C)c(C)c4)c3n2)CC1 [Example 273]
16.5 | 2660 | 20.5 | ≥ 5000 | 3.4 | – | – | – | – | C=CC(=O)N1C[C@H]2C[C@@H]1[C@H](c1ccc3ncnc(Nc4cc(C)c(Oc5ccc6c(c5)ncn6C)cc4F)c3n1)C2 [Example 374]
